Laboratory results as given in patent US20230101743A1, “SUBSTITUTED TRIAZINE COMPOUNDS AND USES THEREOF” (MUSC FOUNDATION FOR RESEARCH DEVELOPMENT, priority 2020, published 2023).

Test system: Intracellular APOB
Assay: Intracellular APOB accumulation (LDL uptake, pulse-chase, immunofluorescence)
Type: cell-based
Conditions: human iPSC-derived hepatocytes
Procedure: C. Human iPSC-derived hepatocytes (iPSC-Heps) were treated with 2 μg/mL of DL-1 or equivalent concentration of DMSO for 24 hours. In FIG. 7A, APOB mRNA level was determined using real-time qPCR. In FIG. 7B Intracellular APOB, LDLR, and HSP90 protein levels were determined via immunoblot; Quantification of biological replicates of immunoblots. Data are shown as mean±SD of four replicates (n=4). In FIG. 12A LDL uptake assay was performed by pre-treating cells with 2 μg/mL of DL-1, 20 μM of Atorvastatin, and equivalent concentration of DMSO for 24 hours followed by 4 hours of pHrodo-LDL exposure; LDL endocytosis was determined and quantified by fluorescence image; data are shown as mean±SD of triplicates (n=3). In FIG. 12B, iPSC-Heps were pre-treated with 3, 12, and 48 μg/mL of DL-9 for 2 hours, and cells were pulse-labeled with [^35S]methionine for 10 minutes and chased for 120 mins with or without DL-9 treatment; intracellular ^35S-APOB were determined by immunoprecipitation using anti-APOB antibody; band density was quantified and normalized with 5% of input (n=3). […]
Immunoprecipitation of cell lysates was performed using protein G magnet beads (ThermoFisher) and anti-APOB (LDL20/17, Mabtech) antibodies. […] Expression levels were quantified via integrated intensity normalized by 5% of input of each sample. […] Signals were detected using HRP-conjugated secondary antibodies. […]

Sc1nc(S)nc(Nc2ccc(Nc3ccccc3)cc2)n1 (racemic) [DL-1, 6-{[4-(phenylamino)phenyl]amino}-1,3,5-triazine-2,4-dithiol]
intracellular APOB accumulation: induced intracellular APOB accumulation independently of mRNA expression and LDL uptake
